Source: patent US11427548B2 (Arvinas Operations, Inc., priority 2015, dated 2022)
Like-named read-outs stand apart in the source and are kept apart here.

Biological target: T1, Androgen Receptor (Homo sapiens, UniProt P10275)
T1 construct: endogenous in cells; host or cells: VCaP cells
T1 sequence (P10275 1-920): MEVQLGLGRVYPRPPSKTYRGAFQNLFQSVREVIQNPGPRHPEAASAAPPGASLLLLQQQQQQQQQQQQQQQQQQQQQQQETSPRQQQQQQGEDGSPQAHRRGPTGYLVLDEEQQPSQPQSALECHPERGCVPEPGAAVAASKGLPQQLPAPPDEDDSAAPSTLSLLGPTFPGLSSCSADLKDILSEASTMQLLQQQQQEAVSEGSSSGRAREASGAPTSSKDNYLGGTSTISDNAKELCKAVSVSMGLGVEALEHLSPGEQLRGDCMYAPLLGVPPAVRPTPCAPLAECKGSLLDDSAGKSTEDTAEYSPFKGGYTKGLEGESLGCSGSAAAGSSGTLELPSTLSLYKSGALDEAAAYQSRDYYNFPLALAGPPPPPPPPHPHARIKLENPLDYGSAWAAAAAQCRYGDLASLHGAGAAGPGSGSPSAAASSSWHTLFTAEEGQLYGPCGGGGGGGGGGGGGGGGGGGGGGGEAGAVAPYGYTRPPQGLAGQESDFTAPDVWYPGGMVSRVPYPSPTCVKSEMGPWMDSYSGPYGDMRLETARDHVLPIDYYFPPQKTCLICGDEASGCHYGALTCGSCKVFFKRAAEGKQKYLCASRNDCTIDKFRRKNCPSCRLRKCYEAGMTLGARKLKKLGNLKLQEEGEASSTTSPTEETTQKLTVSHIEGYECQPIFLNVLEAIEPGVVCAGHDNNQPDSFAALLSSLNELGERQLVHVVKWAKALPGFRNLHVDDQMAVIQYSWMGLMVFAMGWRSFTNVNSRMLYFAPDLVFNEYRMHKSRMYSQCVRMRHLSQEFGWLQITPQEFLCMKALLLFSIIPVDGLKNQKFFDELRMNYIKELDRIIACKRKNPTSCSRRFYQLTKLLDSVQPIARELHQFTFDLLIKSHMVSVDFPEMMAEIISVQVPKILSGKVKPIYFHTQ
Assay: Androgen Receptor ELISA assay (PathScan AR ELISA) in VCaP cells: AR degradation, Dmax and DC50
Type: cell-based
Summary of the method: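 After 24 h exposure of VCaP cells (charcoal-stripped serum, 0.1 nM R1881 agonist, 0.1% DMSO) to seven half-log compound concentrations, residual AR in lysates was measured by PathScan ELISA (TMB absorbance, 450 nm). Cells were plated at 30,000/well and grown at least 3 days beforehand.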

[1] = read-out: VCaP DC50; VCaP cells; Table 36
[2] = VCaP cells; Table 35; read-out: VCaP DC50
[3] = VCaP, VCaP cells; Table 35; read-out: VCaP Dmax (%)
[4] = VCaP cells; Table 36; read-out: VCaP DC50
[5] = VCaP, VCaP cells; Table 36; read-out: VCaP Dmax (%)

Cc1ncsc1-c1ccc([C@H](C)NC(=O)C2C[C@@H](O)CN2C(=O)C(NC(=O)CN2C3CCC2CN(CCCCc2ccc(C(=O)N[C@H]4C(C)(C)[C@H](Oc5ccc(C#N)c(Cl)c5)C4(C)C)cc2)C3)C(C)(C)C)cc1 (stereo partly drawn) [Example 835, (2S,4R)-1-((2S)-2-(2-(3-(4-(4-(((1r,3r)-3-(3-chloro-4-cyanophenoxy)-2,2,4,4-tetramethylcyclobutyl)carbamoyl)phenyl)butyl)-3,8-diazabicyclo[3.2.1]octan-8-yl)acetamido)-3,3-dimethylbutanoyl)-4-hydroxy-N-((S)-1-(4-(4-methylthiazol-5-yl)phenyl)ethyl) pyrrolidine-2-carboxamide]
Dmax (VCaP, read-out: VCaP Dmax (%)): > 71% | DC50 [1]: < 0.05 µM

CC(C)(C)[C@H](NC(=O)COCCCCCNc1ccc(C(=O)N[C@H]2C(C)(C)[C@H](Oc3ccc(C#N)c(Cl)c3)C2(C)C)cc1)C(=O)N1C[C@H](O)C[C@H]1C(=O)NCc1ccc(-c2ccncn2)cc1 [Example 533]
DC50 [2]: < 0.05 µM | Dmax [3]: 26 to 50%

Cc1ncsc1-c1ccc([C@H](C)NC(=O)[C@@H]2C[C@@H]3CN2C(=O)[C@H](C(C)(C)C)NC(=O)COCCCOCCC(CCOc2ccc(N4C(=S)N(c5ccc(C#N)c(C(F)(F)F)c5)C(=O)C4(C)C)cc2)OC(=O)CCc2cn(nn2)CCCCCC(=O)O3)cc1 (stereo partly drawn) [Example 621, (93R,95S,11S,Z)-11-(tert-butyl)-22-(2-(4-(3-(4-cyano-3-(trifluoromethyl)phenyl)-5,5-dimethyl-4-oxo-2-thioxoimidazolidin-1-yl)phenoxy)ethyl)-N-((S)-1-(4-(4-methylthiazol-5-yl)phenyl)ethyl)-7,10,13,24-tetraoxo-11H-8,15,19,23-tetraoxa-12-aza-1(1,4)-triazola-9(3,1)-pyrrolidinacyclohexaco-saphane-95-carboxamide]
Dmax (VCaP, read-out: VCaP Dmax (%)): < 25% | DC50 [1]: > 0.501 µM

Cc1ncsc1-c1ccc([C@H](C)NC(=O)[C@@H]2C[C@@H](O)CN2C(=O)[C@H](C(C)C)n2cc(OCC3CCN(c4ccc(C(=O)N[C@H]5C(C)(C)[C@H](Oc6ccc(C#N)c(Cl)c6)C5(C)C)cc4)CC3)cn2)cc1 [Example 437]
DC50 [2]: > 0.501 µM

Cc1ncsc1-c1ccc([C@H](C)NC(=O)[C@@H]2CC3CN2C(=O)C(C(C)(C)C)NC(=O)COCCCOCCC(CCOc2ccc(N4C(=S)N(c5ccc(C#N)c(C(F)(F)F)c5)C(=O)C4(C)C)cc2)OC(=O)CC/C=C/CCC(=O)O3)cc1 (stereo partly drawn) [Example 620, (3S,25R,27S,E)-3-(tert-butyl)-14-(2-(4-(3-(4-cyano-3-(trifluoroemthyl)phenyl)-5,5-dimethyl-4-oxo-2-thioxoimidazolidin-1-yl)phenoxy)ethyl)-N-((S)-1-(4-(4-methylthiazol-5-yl)phenyl)ethyl)-2,5,16,23-tetraoxo-7,11,15,24-tetraoxa-1,4-diazabicyclo[23.2.1]oct-acos-19-ene-27-carboxamide]
DC50 [1]: > 0.501 µM

Cc1ncsc1-c1ccc(CNC(=O)[C@@H]2C[C@H](O)CN2C(=O)[C@@H](NC(=O)COCCOc2ccc(-c3ccc(C(=O)N[C@H]4C(C)(C)[C@H](Oc5ccc(C#N)c(Cl)c5)C4(C)C)cc3)cc2)C(C)(C)C)cc1 [Example 481]
DC50 [2]: > 0.501 µM | Dmax [3]: < 25%

Cc1ncsc1-c1ccc([C@H](C)NC(=O)[C@@H]2CC(O)CN2C(=O)[C@H](C(C)C)N2Cc3ccc(OCCN4CCN(c5ccc(C(=O)N[C@H]6C(C)(C)[C@H](Oc7ccc(C#N)c(Cl)c7)C6(C)C)cn5)CC4)cc3C2=O)cc1 (stereo partly drawn) [Example 856, N-((1r,3r)-3-(3-chloro-4-cyanophenoxy)-2,2,4,4-tetramethylcyclobutyl)-6-(4-(2-((2-((S)-1-((2S, 4R)-4-hydroxy-2-(((S)-1-(4-(4-methylthiazol-5-yl)phenyl)ethyl)carbamoyl)pyrrolidin-1-yl)-3-methyl-1-oxobutan-2-yl)-3-oxoisoindolin-5-yl)oxy)ethyl)piperazin-1-yl)nicotinamide]
DC50 [4]: > 0.501 µM | Dmax [5]: < 25%

Cc1ncsc1-c1ccc(CNC(=O)[C@@H]2C[C@@H](O)CN2C(=O)[C@@H](NC(=O)CCOCCN2CCC(COc3ccc(N4C(=S)N(c5ccc(C#N)c(C(F)(F)F)c5)C(=O)C4(C)C)cc3)CC2)C(C)(C)C)cc1 [Example 313]
DC50 (read-out: VCaP DC50; VCaP cells; Table 34): < 0.05 µM

Cc1ncsc1-c1ccc([C@H](C)NC(=O)[C@@H]2C[C@@H](O)CN2C(=O)[C@@H](C(C)C)n2cc(OCCCOCCCn3cnc(-c4ccc(N5C(=S)N(c6ccc(C#N)c(C(F)(F)F)c6)C(=O)C5(C)C)cc4)c3)cn2)cc1 [Example 647, (2S,4R)-1-((R)-2-(4-(3-(3-(4-(4-(3-(4-cyano-3-(trifluoromethyl)phenyl)-5,5-dimethyl-4-oxo-2-thhioxoimidazolidin-1-yl)phenyl)-1H-imidazol-1-yl)propoxy)propoxy)-1H-pyrazol-1-yl)-3-methylbutanoyl)-4-hydroxy-N-((S)-1-(4-(4-methylthiazol-5-yl)phenyl)ethyl)pyrrolidine-2-carboxamide]
Dmax (VCaP, read-out: VCaP Dmax (%)): < 25% | DC50 [1]: > 0.501 µM

Cc1ncsc1-c1ccc([C@H](C)NC(=O)C2C[C@@H](O)CN2C(=O)[C@@H](NC(=O)c2cc3ccc(OC[C@H]4C[C@H](COc5ccc(N6C(=S)N(c7ccc(C#N)c(C(F)(F)F)c7)C(=O)C6(C)C)cc5)C4)cc3o2)C(C)(C)C)cc1 (some centres unmarked) [Example 605, 1-(2-(6-((3-((4-(3-(4-cyano-3-(trifluoromethyl)phenyl)-5,5-dimethyl-4-oxo-2-thioxoimidazolidin-1-yl)phenoxy)methyl)cyclo-butyl)methoxy)benzo-furan-2-carboxamido)-3,3-dimethylbutanoyl)-4-hydroxy-N-(1-(4-(4-methylthiazol-5-yl)phenyl)ethyl)pyrroli-dine-2-carboxamide]
Dmax (VCaP, read-out: VCaP Dmax (%)): < 25% | DC50 [1]: > 0.501 µM

Cc1ncsc1-c1ccc(CNC(=O)[C@@H]2C[C@@H](O)CN2C(=O)[C@@H](NC(=O)COCCC[C@H](C)Oc2ccc(-c3ccc(N4C(=S)N(c5ccc(C#N)c(C(F)(F)F)c5)C(=O)C4(C)C)cc3)cc2)C(C)(C)C)cc1 [Example 142, (2S,4R)-1-[(2S)-2-(2-{[(4R)-4-[4-(4-{3-[4-cyano-3-(trifluoromethyl)phenyl]-5,5-dimethyl-4-oxo-2-sulfanylideneimidazolidin-1-yl}phenyl)phen-oxy]pentyl]oxy}acetamido)-3,3-dimethylbutanoyl]-4-hydroxy-N-{[4-(4-methyl-1,3-thiazol-5-yl)phenyl]methyl}pyrrolidine-2-carboxamide]
Dmax (VCaP, read-out: VCaP Dmax (%)): > 71% | DC50 (read-out: VCaP DC50; concentration that caused 50% Androgen Receptor degradation, VCaP cells (Table 32)): < 0.05 µM

Cc1ncsc1-c1ccc([C@H](C)NC(=O)C2C[C@@H](O)CN2C(=O)[C@@H](NC(=O)CN2C[C@@H]3C[C@H]2CN3CCCc2ccc(C(=O)N[C@H]3C(C)(C)[C@H](Oc4ccc(C#N)c(Cl)c4)C3(C)C)cc2)C(C)(C)C)cc1 (stereo partly drawn) [Example 801, (2S,4R)-1-((S)-2-(2-((1S,4S)-5-(3-(4-(((1r,3S)-3-(3-chloro-4-cyanophenoxy)-2,2,4,4-tetramethylcyclobutyl)carbamoyl)phenyl)propyl)-2,5-diazabicyclo[2.2.1]heptan-2-yl)acetamido)-3,3-dimethylbutanoyl)-4-hydroxy-N-((S)-1-(4-(4-methylthiazol-5-yl)phenyl)ethyl)pyrrolidine-2-carboxamide]
DC50 [4]: < 0.05 µM | Dmax [5]: 51 to 70%

Cc1ncsc1-c1ccc(CNC(=O)[C@@H]2C[C@@H](O)CN2C(=O)[C@@H](C(C)C)N2Cc3ccc(N4CCN(CCCc5ccc(C(=O)N[C@H]6C(C)(C)[C@H](Oc7ccc(C#N)c(C(F)(F)F)c7)C6(C)C)cc5)CC4)cc3C2=O)cc1 [Example 761, (2S,4R)-1-((R)-2-(6-(4-(3-(4-(((1r,3r)-3-(4-cyano-3-(trifluoromethyl)phenxoy)-2,2,4,4-tetramethylcyclobutyl)carbamoyl)phenyl)propyl)piperazin-1-yl)-1-oxoisoindolin-2-yl)-3-methylbutanoyl)-4-hydroxy-N-(4-(4-methylthiazol-5-yl)benzyl)pyrrolidine-2-carboxamide]
DC50 [4]: > 0.501 µM | Dmax (VCaP, read-out: VCaP Dmax (%), VCaP cells; Table 36): < 25%
